Data from patent US20110015067A1, “Herbicidal Compositions Comprising Pyroxasulfone” (BASF SE, priority 2008, published 2011).

Key:
Assay type in all cases: in vivo
[1] = system: CHEAL (Chenopodium album); test: post-emergence greenhouse test; conditions: 15 g ai/ha
Source text: (§1) For the post-emergence treatment, the test plants were first grown to a height of 3 to 20 cm, depending on the plant habit, and only then treated. Here, the herbicidal compositions were suspended or emulsified in water as distribution medium and sprayed using finely distributing nozzles.
(§2) The respective herbicides A and/or safener were formulated as 10% by weight strength suspension concentrate and introduced to the spray liquor with the amount of solvent system used for applying the active compound. Herbicide B and/or safener were used as commercially available formulations and introduced to the spray liquor with the amount of solvent system used for applying the active compound. In the examples, the solvent used was water.
(§3) The test period extended over 20 days. During this time, the plants were tended, and their response to the treatments with active compound was evaluated.
(§4) In the following experiments, the herbicidal activity for the individual herbicide compounds (solo application) and of the mixture was assessed 8 days after treatment (8 DAT) and/or 20 days after treatment (20 DAT).
(§5) The evaluation for the damage caused by the chemical compositions was carried out using a scale from 0 to 100%, compared to the untreated control plants. Here, 0 means no damage and 100 means complete destruction of the plants.

[2] = system: MERAN (Mercurialis annua); test: post-emergence greenhouse test; conditions: 7.5 g ai/ha
Source text: as §1, §2, §3, §4, §5

[3] = system: ALOMY (Alopecurus myosuroides); test: post-emergence greenhouse test; conditions: 3.75 g ai/ha
Source text: as §1, §2, §3, §4, §5

ERBVI = test: pre-emergence greenhouse test; conditions: ERBVI pre-emergence 15 g ai/ha
Source text: (§6) For the pre-emergence treatment, directly after sowing the active compounds, which had been suspended or emulsified in water, were applied by means of finely distributed nozzles. The containers were irrigated gently to promote germination and growth and subsequently covered with transparent plastic hoods until plant had rooted. This cover caused uniform germination of the tests plants, unless this was adversely affected by active compounds.
as §2, §3, §4, §5

SETVI (Setaria viridis) = test: pre-emergence greenhouse test
Source text: as §6, §2, §3, §4, §5

[4] = system: AMARE (Amaranthus retroflexus); test: pre-emergence greenhouse test; conditions: pre-emergence
Source text: as §6, §2, §3, §4, §5

PHBPU (Ipomoea purpurea) = test: pre-emergence greenhouse test; conditions: for observed activity in % destruction: pre-emergence, 3.75 g ai/ha
Source text: as §6, §2, §3, §4, §5

[5] = system: ABUTH (Abutilon theophrasti); test: pre-emergence greenhouse test; conditions: pre-emergence, 7.5 g ai/ha
Source text: as §6, §2, §3, §4, §5

[6] = system: ECHCG (Echinochloa crus-galli); test: pre-emergence greenhouse test; conditions: for observed activity in % destruction: pre-emergence
Source text: as §6, §2, §3, §4, §5

SOLNI (Solanum nigrum) = test: pre-emergence greenhouse test; conditions: for observed activity in % destruction: pre-emergence
Source text: as §6, §2, §3, §4, §5

[7] = system: LOLMU (Lolium multiflorum); test: pre-emergence greenhouse test; conditions: for observed activity in % destruction: pre-emergence
Source text: as §6, §2, §3, §4, §5

[8] = system: PANDI (Panicum dichotomiflorum); test: pre-emergence greenhouse test; conditions: pre-emergence
Source text: as §6, §2, §3, §4, §5

[9] = system: BRAPL (Brachiaria plantaginea); test: pre-emergence greenhouse test; conditions: for observed activity in % destruction: pre-emergence, 15 g ai/ha
Source text: as §6, §2, §3, §4, §5

[10] = system: COMBE (Commelina benghalensis); test: pre-emergence greenhouse test; conditions: for observed activity in % destruction: pre-emergence
Source text: as §6, §2, §3, §4, §5

[11] = system: ALOMY (Alopecurus myosuroides); test: pre-emergence greenhouse test; conditions: for observed activity in % destruction: pre-emergence, 15 g ai/ha
Source text: as §6, §2, §3, §4, §5

## Cc1cnc(C2=NC(=O)C(C)(C(C)C)N2)c(C(=O)O)c1 (stereo not drawn) [imazapic]
[1]; 8 DAT
  observed activity in % destruction: 20%
[1]; 20 DAT
  observed activity in % destruction: 30%
[2]; 8 DAT
  observed activity in % destruction: 20%
[2]; 20 DAT
  observed activity in % destruction: 0%
[3]; 8 DAT
  observed activity in % destruction: 35%
[3]; 20 DAT
  observed activity in % destruction: 30%
ERBVI
  observed % destruction 20 DAT: 65%
SETVI (Setaria viridis); SETVI pre-emergence 3.75 g ai/ha
  observed % destruction 20 DAT: 75%
SETVI (Setaria viridis); SETVI pre-emergence 7.5 g ai/ha
  observed % destruction 20 DAT: 90%
SETVI (Setaria viridis); SETVI pre-emergence 15 g ai/ha
  observed % destruction 20 DAT: 95%
[4]; 3.75 g ai/ha, 8 DAT
  observed activity in % destruction: 30%
[4]; 3.75 g ai/ha, 20 DAT
  observed activity in % destruction: 55%
[4]; 7.5 g ai/ha, 8 DAT
  observed activity in % destruction: 50%
[4]; 7.5 g ai/ha, 20 DAT
  observed activity in % destruction: 75%
[4]; 15 g ai/ha, 8 DAT
  observed activity in % destruction: 50%
[4]; 15 g ai/ha, 20 DAT
  observed activity in % destruction: 90%
PHBPU (Ipomoea purpurea); PHBPU pre-emergence 3.75 g ai/ha
  observed % destruction 20 DAT: 25%
PHBPU (Ipomoea purpurea); 8 DAT
  observed activity in % destruction: 30%
PHBPU (Ipomoea purpurea); 20 DAT
  observed activity in % destruction: 25%
[5]; 8 DAT
  observed activity in % destruction: 20%
[5]; 20 DAT
  observed activity in % destruction: 75%
[6]; ECHCG pre-emergence 7.5 g ai/ha
  observed % destruction 20 DAT: 60%
[6]; ECHCG pre-emergence 15 g ai/ha
  observed % destruction 20 DAT: 90%
[6]; 7.5 g ai/ha, 8 DAT
  observed activity in % destruction: 30%
[6]; 7.5 g ai/ha, 20 DAT
  observed activity in % destruction: 60%
[6]; 15 g ai/ha, 8 DAT
  observed activity in % destruction: 65%
[6]; 15 g ai/ha, 20 DAT
  observed activity in % destruction: 90%
SOLNI (Solanum nigrum); SOLNI pre-emergence 3.75 g ai/ha
  observed % destruction 20 DAT: 70%
SOLNI (Solanum nigrum); SOLNI pre-emergence 7.5 g ai/ha
  observed % destruction 20 DAT: 85%
SOLNI (Solanum nigrum); SOLNI pre-emergence 15 g ai/ha
  observed % destruction 20 DAT: 90%
SOLNI (Solanum nigrum); 3.75 g ai/ha, 8 DAT
  observed activity in % destruction: 20%
SOLNI (Solanum nigrum); 3.75 g ai/ha, 20 DAT
  observed activity in % destruction: 70%
SOLNI (Solanum nigrum); 7.5 g ai/ha, 8 DAT
  observed activity in % destruction: 40%
SOLNI (Solanum nigrum); 7.5 g ai/ha, 20 DAT
  observed activity in % destruction: 85%
SOLNI (Solanum nigrum); 15 g ai/ha, 8 DAT
  observed activity in % destruction: 50%
SOLNI (Solanum nigrum); 15 g ai/ha, 20 DAT
  observed activity in % destruction: 90%
[7]; LOLMU pre-emergence 3.75 g ai/ha
  observed % destruction 20 DAT: 40%
[7]; LOLMU pre-emergence 7.5 g ai/ha
  observed % destruction 20 DAT: 45%
[7]; LOLMU pre-emergence 15 g ai/ha
  observed % destruction 20 DAT: 65%
[7]; 3.75 g ai/ha, 8 DAT
  observed activity in % destruction: 0%
[7]; 3.75 g ai/ha, 20 DAT
  observed activity in % destruction: 40%
[7]; 7.5 g ai/ha, 8 DAT
  observed activity in % destruction: 0%
[7]; 7.5 g ai/ha, 20 DAT
  observed activity in % destruction: 45%
[7]; 15 g ai/ha, 8 DAT
  observed activity in % destruction: 30%
[7]; 15 g ai/ha, 20 DAT
  observed activity in % destruction: 65%
[8]; 3.75 g ai/ha, 8 DAT
  observed activity in % destruction: 0%
[8]; 3.75 g ai/ha, 20 DAT
  observed activity in % destruction: 80%
[8]; 7.5 g ai/ha, 8 DAT
  observed activity in % destruction: 30%
[8]; 7.5 g ai/ha, 20 DAT
  observed activity in % destruction: 90%
[8]; 15 g ai/ha, 8 DAT
  observed activity in % destruction: 50%
[8]; 15 g ai/ha, 20 DAT
  observed activity in % destruction: 95%
[9]; BRAPL pre-emergence 15 g ai/ha
  observed % destruction 20 DAT: 85%
[9]; 8 DAT
  observed activity in % destruction: 30%
[9]; 20 DAT
  observed activity in % destruction: 85%
[10]; COMBE pre-emergence 3.75 g ai/ha
  observed % destruction 20 DAT: 30%
[10]; COMBE pre-emergence 7.5 g ai/ha
  observed % destruction 20 DAT: 40%
[10]; 3.75 g ai/ha, 8 DAT
  observed activity in % destruction: 0%
[10]; 3.75 g ai/ha, 20 DAT
  observed activity in % destruction: 30%
[10]; 7.5 g ai/ha, 8 DAT
  observed activity in % destruction: 20%
[10]; 7.5 g ai/ha, 20 DAT
  observed activity in % destruction: 40%
[11]; ALOMY pre-emergence 15 g ai/ha
  observed % destruction 20 DAT: 80%
[11]; 8 DAT
  observed activity in % destruction: 40%
[11]; 20 DAT
  observed activity in % destruction: 80%
